Reference: ChEMBL document CHEMBL3232845 (Bioorg Med Chem Lett, 2014)

Key:
[1] = Antitumor activity against human LOX cells expressing B-Raf V600E mutant xenografted in nude mouse assessed as tumor growth inhibition at 30 mg/kg qd for 4 days measured on day 8; format: functional; details: read-out: TGI
[2] = biological target: Cytoplasmic tyrosine-protein kinase BMX (Homo sapiens) (UniProt P51813); assay: Inhibition of human Bmx assessed as enzyme activity at 1 uM relative to control; design: scale not given: the % may be the effect or the level left
[3] = biological target: CDK2/Cyclin A2 (Homo sapiens) (UniProt P24941+P20248); assay: Inhibition of human CDK2/cyclinA assessed as enzyme activity at 1 uM relative to control; format: protein-complex assay; design: scale not given: the % may be the effect or the level left
[4] = biological target: Serine/threonine-protein kinase 17A (Homo sapiens) (UniProt Q9UEE5); assay: Inhibition of human DRAK1 assessed as enzyme activity at 1 uM relative to control; design: scale not given: the % may be the effect or the level left
[5] = biological target: Tyrosine-protein kinase FRK (Homo sapiens) (UniProt P42685); assay: Inhibition of human PTK5 assessed as enzyme activity at 1 uM relative to control; design: scale not given: the % may be the effect or the level left
[6] = biological target: SRSF protein kinase 1 (Homo sapiens) (UniProt Q96SB4); assay: Inhibition of human SRPK1 assessed as enzyme activity at 1 uM relative to control; design: scale not given: the % may be the effect or the level left
Chain of SRSF protein kinase 1 (Homo sapiens) (Q96SB4 whole entry): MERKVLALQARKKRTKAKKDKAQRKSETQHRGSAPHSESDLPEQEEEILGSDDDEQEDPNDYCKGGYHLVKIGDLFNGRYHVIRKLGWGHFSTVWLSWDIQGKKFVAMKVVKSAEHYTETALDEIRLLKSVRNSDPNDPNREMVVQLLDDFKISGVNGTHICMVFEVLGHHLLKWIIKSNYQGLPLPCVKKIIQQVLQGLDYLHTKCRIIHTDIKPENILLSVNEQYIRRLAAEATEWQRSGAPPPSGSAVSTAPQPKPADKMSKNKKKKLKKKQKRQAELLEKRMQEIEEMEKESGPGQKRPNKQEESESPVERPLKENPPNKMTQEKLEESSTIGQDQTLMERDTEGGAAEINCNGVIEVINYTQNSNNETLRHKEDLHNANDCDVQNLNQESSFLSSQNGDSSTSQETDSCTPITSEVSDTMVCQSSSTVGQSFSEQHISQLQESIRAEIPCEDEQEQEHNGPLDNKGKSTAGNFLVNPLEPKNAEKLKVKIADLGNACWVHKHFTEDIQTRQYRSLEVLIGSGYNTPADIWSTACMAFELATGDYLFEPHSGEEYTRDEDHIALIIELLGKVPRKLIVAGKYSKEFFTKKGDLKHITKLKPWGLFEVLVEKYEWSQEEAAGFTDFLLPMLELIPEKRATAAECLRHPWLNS

Chain of Cytoplasmic tyrosine-protein kinase BMX (Homo sapiens) (P51813 whole entry): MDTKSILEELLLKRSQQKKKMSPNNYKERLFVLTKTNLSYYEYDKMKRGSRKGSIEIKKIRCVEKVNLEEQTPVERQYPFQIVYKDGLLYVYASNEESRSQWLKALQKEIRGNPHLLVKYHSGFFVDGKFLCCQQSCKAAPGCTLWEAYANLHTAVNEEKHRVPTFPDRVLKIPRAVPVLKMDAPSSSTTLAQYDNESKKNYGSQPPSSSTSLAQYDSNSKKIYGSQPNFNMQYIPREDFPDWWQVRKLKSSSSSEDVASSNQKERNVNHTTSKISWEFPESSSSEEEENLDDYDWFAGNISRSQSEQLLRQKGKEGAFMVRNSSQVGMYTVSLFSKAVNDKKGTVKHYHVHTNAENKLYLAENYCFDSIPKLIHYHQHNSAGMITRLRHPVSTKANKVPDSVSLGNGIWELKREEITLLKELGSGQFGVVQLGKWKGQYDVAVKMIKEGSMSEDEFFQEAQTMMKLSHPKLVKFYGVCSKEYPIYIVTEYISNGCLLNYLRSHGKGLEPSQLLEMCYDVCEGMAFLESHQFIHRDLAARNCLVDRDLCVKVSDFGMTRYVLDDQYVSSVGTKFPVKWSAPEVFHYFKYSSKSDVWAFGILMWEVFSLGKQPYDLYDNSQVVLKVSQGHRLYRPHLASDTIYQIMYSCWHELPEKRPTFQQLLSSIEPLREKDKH
Chain of Tyrosine-protein kinase FRK (Homo sapiens) (P42685 whole entry): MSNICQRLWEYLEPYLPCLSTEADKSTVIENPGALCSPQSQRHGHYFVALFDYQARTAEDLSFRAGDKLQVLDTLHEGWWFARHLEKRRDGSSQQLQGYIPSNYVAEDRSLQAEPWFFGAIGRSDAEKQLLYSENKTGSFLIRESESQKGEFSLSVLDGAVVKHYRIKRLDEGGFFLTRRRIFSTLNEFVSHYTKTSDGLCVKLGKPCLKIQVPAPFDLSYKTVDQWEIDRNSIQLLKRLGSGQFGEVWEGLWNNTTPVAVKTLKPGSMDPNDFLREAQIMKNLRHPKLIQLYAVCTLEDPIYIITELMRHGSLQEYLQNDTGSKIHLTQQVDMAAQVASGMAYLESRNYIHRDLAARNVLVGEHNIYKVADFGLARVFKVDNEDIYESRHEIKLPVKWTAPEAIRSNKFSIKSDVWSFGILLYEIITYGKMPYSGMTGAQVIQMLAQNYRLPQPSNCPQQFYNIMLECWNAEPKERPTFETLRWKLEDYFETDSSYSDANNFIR
Chain of Serine/threonine-protein kinase 17A (Homo sapiens) (Q9UEE5 whole entry): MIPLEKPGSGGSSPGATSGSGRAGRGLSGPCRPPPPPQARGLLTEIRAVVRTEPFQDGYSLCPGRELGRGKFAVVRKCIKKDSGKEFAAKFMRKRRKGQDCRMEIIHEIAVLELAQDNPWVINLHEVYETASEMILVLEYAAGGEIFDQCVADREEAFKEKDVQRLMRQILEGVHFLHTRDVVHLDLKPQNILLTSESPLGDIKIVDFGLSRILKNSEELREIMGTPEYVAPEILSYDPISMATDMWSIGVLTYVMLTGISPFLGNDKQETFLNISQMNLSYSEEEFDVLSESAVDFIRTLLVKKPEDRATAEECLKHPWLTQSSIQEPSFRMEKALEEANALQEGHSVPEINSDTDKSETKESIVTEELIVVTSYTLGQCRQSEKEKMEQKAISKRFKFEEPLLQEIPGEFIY

Compound: CCCS(=O)(=O)Nc1cccc(Nc2ccc3ncn(C)c(=O)c3c2)c1C#N
- inhibition in vivo at 30 mg/kg [1]: 99%
- Activity [2]: 91.5%
- Activity [3]: 98.5%
- Activity [4]: 120%
- Activity [5]: 83.5%
- Activity [6]: 109%
